Reference: PMC8016166, “Identification of a Potent and Selective 5-HT1A Receptor Agonist with In Vitro and In Vivo Antinociceptive Activity” (ACS Chemical Neuroscience, 2020)

What was measured:
5-HT1AR [1] = molecular target: T1, 5-HT1AR (Rattus norvegicus, UniProt P19327); experiment: [35S]GTPγS functional 5-HT1A assay in rat hippocampal membranes; assay type: biochemical; conditions: read-out: 5-HT1A Emax (%) ± SEM
T1 construct: from tissue; hippocampus per the main-text methods
T1 sequence (P19327 1-422): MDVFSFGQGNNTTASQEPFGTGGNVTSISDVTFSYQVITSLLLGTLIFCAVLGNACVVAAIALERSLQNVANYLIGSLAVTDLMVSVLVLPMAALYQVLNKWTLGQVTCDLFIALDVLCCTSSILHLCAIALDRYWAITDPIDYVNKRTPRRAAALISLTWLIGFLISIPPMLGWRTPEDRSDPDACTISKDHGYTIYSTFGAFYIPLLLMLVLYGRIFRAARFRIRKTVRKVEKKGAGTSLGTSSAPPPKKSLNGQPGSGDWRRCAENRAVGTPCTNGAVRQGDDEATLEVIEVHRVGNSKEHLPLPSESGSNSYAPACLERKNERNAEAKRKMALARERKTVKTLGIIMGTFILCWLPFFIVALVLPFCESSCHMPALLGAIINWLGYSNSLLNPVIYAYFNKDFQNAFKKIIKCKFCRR
Procedure: (§1) Male Sprague–Dawley rats were decapitated and their brains removed and placed on ice. The hippocampi (for the functional 5-HT1A receptor assay) or frontal cortexes (for the competitive 5-HT2A and 5-HT2C receptor assays) were dissected and homogenized with a glass homogenizer in 30 vol. ice-cold TED buffer (50 mMTris-HCl, 1 mM EDTA, 1 mM dithiotheritol, pH 7.4). Next, the homogenate was centrifuged at 21 000g for 30 min at 4 °C. The pellet was suspended in 30 vol TED buffer (pH 7.4) and incubated in a water bath for 10 min at 37 °C to remove endogenous ligands. The suspension was centrifuged again at 21 000g for 30 min at 4 °C. The pellet was resuspended in 30 vol TED buffer (pH 7.4) and the centrifugation step was repeated. The final pellet was suspended in 10 vol 50 mM Tris-HCl (pH 7.4) and stored at −80 °C until use.[47]
(§2) The [^35S]GTPγS assay was performed according to the method described previously.[49] […] Nonspecific binding was determined with 100 μM of unlabeled GTPγS. The reaction mixture was incubated for 90 min at 36 °C in a volume of 250 μL. […] Next, 96-well Unifilter Plates (PerkinElmer, USA) were presoaked for 1 h with 50 mM Tris-HCl (pH = 7.4) before harvesting. The reaction was terminated by vacuum filtration onto filter plates with the Filter Mate Harvester (PerkinElmer, USA). The samples were then rapidly washed with 2 mL of 50 mM Tris-HCl (pH = 7.4) buffer. The filter plates were dried for 2 h at 50 °C. After drying, 45 μL of EcoScint-20 scintillant (PerkinElmer, USA) was added to every well. The radioactivity was counted in a Trilux MicroBeta^2 counter (PerkinElmer, USA). The data were analyzed with GraphPad Prism 5.0 software (GraphPad Software, San Diego California USA, www.graphpad.com). To determine whether compound-stimulated [^35S]GTPγS binding involved 5-HT1A receptors, two protocols were used.
The curves were fitted with a one-site nonlinear regression model. Efficacy (Emax) and potency (pEC50) were calculated from […] from three separate experiments and expressed as the means ± SEM. […] The differences in compound potency and efficacy were evaluated with one-way ANOVA followed by the Bonferroni’s post-hoc test. The baseline G-protein stimulation was set at 100%. One, two, or three symbols represent statistical significance of 0.05, 0.01, and 0.001, respectively.

Male Swiss CB1 mice = experiment: Formalin test; assay type: in vivo, mouse
Procedure: Male Swiss CB1 mice (Envigo, S. Pietro al Natisone (UD)) weighing 25–30 g were used. The animals were kept at a constant room temperature (25 ± 1 °C) under a 12:12 h light and dark cycle, with free access to food and water. Each mouse was used for only one experiment. […] All the tests were performed blind to treatment.
The formalin (5%, 10 μL; Sigma-Aldrich) was injected subcutaneously into the plantar side of the right hind paw.[68] After injection, the mice were immediately placed in a plexiglas box: the total time (in seconds) spent on licking or biting the injected hind paw was recorded every 5 min at selected intervals, 0–10 (phase I) and 10–60 (phase II) min, in the different experimental groups, as an indicator of nociceptive behavior. […] A mean response was then calculated for each phase. […] A vehicle solution containing 10% DMSO was given as a control. Morphine was used as positive control. The test compound and vehicle were […] (i.p.) administered (5 mL/kg) 15 min before the formalin. […] The data are expressed as mean values (SEM). Analyses of variance (two-way repeated measures ANOVA followed by post hoc Bonferroni test) were performed to assess significance using the Instat 3.0 software (GraphPad Software, San Diego, CA). p < 0.05 was considered significant.

5-HT2CR = molecular target: T2, 5-HT2CR (Rattus norvegicus, UniProt P08909); experiment: Radioligand binding at 5-HT2C on rat frontal cortex membranes; conditions: rat frontal cortex membranes; [3H]mesulergine
T2 construct: from tissue; host or cells: frontal cortex of male Sprague-Dawley rats
T2 sequence (P08909 33-460): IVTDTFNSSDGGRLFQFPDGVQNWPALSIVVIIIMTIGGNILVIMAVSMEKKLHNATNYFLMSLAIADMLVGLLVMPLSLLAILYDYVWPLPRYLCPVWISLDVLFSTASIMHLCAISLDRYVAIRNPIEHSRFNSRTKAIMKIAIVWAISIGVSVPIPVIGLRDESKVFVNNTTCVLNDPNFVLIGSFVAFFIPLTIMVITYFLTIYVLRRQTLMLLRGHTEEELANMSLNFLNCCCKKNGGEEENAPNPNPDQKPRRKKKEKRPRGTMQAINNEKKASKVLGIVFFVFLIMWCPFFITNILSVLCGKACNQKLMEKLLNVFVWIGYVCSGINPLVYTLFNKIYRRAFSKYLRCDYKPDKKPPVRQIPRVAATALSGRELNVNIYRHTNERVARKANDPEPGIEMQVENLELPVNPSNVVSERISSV
Procedure: as §1
The 5-HT2A assay was performed according to a previously described protocol with some modifications.[48] […] Nonspecific binding was determined in the presence of 10 μM mianserin. For the 5-HT2C assay, the frontal cortex homogenates (250 μg protein/mL) were incubated in triplicate with 1 nM [^3H]mesulergine for 60 min at 36 °C in a 50 mM Tris-HCl (pH 7.4) buffer containing 0.1% ascorbate, 10 mM MgCl2, 10 μM pargyline, 100 nM spiperone, and increasing concentrations (10^–10–10^–5 M) of the compound tested. After incubation, the reaction mixture was deposited onto UniFilter-96 GF/B plates, with the aid of a FilterMate-96 Harvester. The filter plates were presoaked with 0.4% PEI for 1 h. Next, each filter well was washed with 1.75 mL of 50 mM Tris-HCl (pH 7.4) and left to dry on a heating block set to 50 °C for 2 h. Then, 45 μL of Microscint-20 scintillation fluid was added to each filter well and left to equilibrate overnight. The filter-bound radioactivity was counted in a MicroBeta^2 Microplate Counter. Curves were fitted with a one-site sigmoidal dose–response equation and pKi for each compound was calculated with the Cheng-Pursoff equation. Results were analyzed with one-way ANOVA followed by the Bonferroni’s posthoc test. The results are expressed as means ± SEM of three independent experiments.

[2] = test system: superficial dorsal horn neurons (lamina I–II); experiment: Patch-clamp recording from spinal cord slices; assay type: cell-based, mouse
Procedure: The Italian Ministry of Health approved all the experiments that were conducted on postnatal CD1 mice (P18–P25) in accordance with the Guide for the Care and Use of Laboratory Animals and the EU and Italian regulations on animal welfare. The spinal cord slices were obtained following the procedure described previously.[69],[70] Briefly, the animals were anesthetized with isoflurane and decapitated, the spinal cord and vertebrae were rapidly removed and placed in ice-cold dissecting Krebs’ solution (composition in mM:125 NaCl, 2.5 KCl, 1.25 NaH2PO4, 26 NaHCO3, 25 glucose, 6 MgCl2, 1.5 CaCl2, and 1 kynurenic acid, pH 7.4, 320 mOsm), bubbled with 95% O2, 5% CO2. The lumbar spinal cord was isolated, embedded in an agarose block (low melting point agarose 3%, Thermo Fisher Scientific, Waltham, USA), and transverse slices (500 μm thick) were obtained using a vibrating microtome (WPI, Sarasota, USA). The slices were incubated in oxygenated incubation Krebs’ solution (the same as dissecting but without kynurenic acid) at 35 °C for 30 min and used for recording. The Patch-clamp recording in whole-cell configuration was performed on lamina I–II neurons at room temperature. The slices were perfused at 2 mL/min with recording Krebs’solution (in mM: 125 NaCl, 2.5 KCl, 1.25 NaH2PO4, 26 NaHCO3, 25 glucose, 1 MgCl2, and 2 CaCl2, pH 7.4, 320 mOsm). Recordings of post-synaptic currents (EPSCs) were performed in voltage clamp, by using an intracellular solution with the following composition (in mM): 120 potassium methanesulfonate, 10 NaCl, 10 EGTA, 1 CaCl2, 10 HEPES, 5 ATP-Mg, pH adjusted to 7.2 with KOH, osmolarity 300 mOsm. 8-OH-DPAT was obtained from Sigma-Aldrich (Saint Louis, USA). The data were recorded and acquired using a Multiclamp 700A amplifier and the pClamp 10 software (Molecular Devices, Sunnyvale, USA). The sampling rate was 10 kHz, and the data were filtered at 2 kHz. The data were analyzed off-line using pClamp10 software and Minianalysis (Synaptosoft, USA). The data are expressed as the mean ± SEM and differences were considered significant for p < 0.05. The statistical significance for the effect on EPSC frequency was determined using the Kolmogorov–Smirnov test on individual neurons.

5-HT1AR [3] = molecular target: T1, 5-HT1AR; experiment: Effect of WAY100635 on compound-stimulated [35S]GTPγS binding (Tables SI-1, SI-2); assay type: biochemical
Procedure: as §2, with “used. […]” for “used.”
WAY).) Results were expressed as means ± SEM. Curves were fitted with a one-site sigmoidal dose-response equation […]
calculated as the ratio of pEC50 in the presence of WAY100635 divided by the pEC50 of agonist alone. Basal 5-HT1AR activation was set to 100%. Results were analyzed with one-way ANOVA followed by the Bonferroni’s post-hoc test. […]
WAY100635 (10^-10 M - 10^-5 M, WAY). Results were expressed as means ± SEM. Curves were fitted with a one-site sigmoidal dose-response equation and Emax (%) of the EC80 agonist concentration alone and in the presence of WAY100635 were determined from 2 independent experiments. Basal (no ligand added) [35S]GTPγS binding was set to 100%. Results were analyzed with one-way ANOVA followed by the Bonferroni’s post-hoc test.

**Q.** `NCCc1c[nH]c2ccc(O)cc12` [serotonin, reference compound] was tested. Which Emax (5-HT1AR [1]; rat hippocampal membranes, basal 5-HT1AR activation set to 100%) did it give?
**A.** The Emax was 192 ± 4.9%.

**Q.** For `COc1ccccc1N1CCN(CCN(C(=O)C2CCCCC2)c2ccccn2)CC1` [WAY-100635, reference compound], which “licking response after formalin, per se” value (Male Swiss CB1 mice; 3 mg/kg i.p.) is on record?
**A.** Its value is “did not alter the licking response”.

**Q.** For `COc1cc(OC)c(C(=O)CCCCN2CCC3(CC2)NC(=O)NC3=O)cc1NS(=O)(=O)c1ccc(C(F)(F)F)cc1` [RS-102221, reference compound], which “5-HT2C pKi ± SEM” value (5-HT2CR) is on record?
**A.** Its value is 8.34 ± 0.12.

**Q.** How did the “analgesic effect in first and second phases of the formalin test” value (Male Swiss CB1 mice; 10 mg/kg i.p., formalin 5% 10 μL intraplantar) turn out when `CN1CC[C@]23c4c5ccc(O)c4O[C@H]2[C@@H](O)C=C[C@H]3[C@H]1C5` [Morphine, reference compound] was run?
**A.** The value was “essentially eliminated the response to formalin”.

**Q.** `CCCN(CCC)C1CCc2cccc(O)c2C1` (stereo not drawn) [8-OH-DPAT, reference compound] was tested. Which Emax (5-HT1AR [1]) did it give?
**A.** Its Emax is 152 ± 2.4%.

**Q.** And the “neurons showing sEPSC frequency decrease” value ([2]; 10 μM)?
**A.** The value was 4 out of 11.

**Q.** What about the “neurons showing slow outward current” value ([2]; bath application 10 μM, voltage clamp −60 mV) of the same compound?
**A.** Its value is 6 out of the 11.

**Q.** And the Emax (5-HT1AR [3]; read-out: Emax (%) ± SEM of EC80 agonist concentration alone)?
**A.** The Emax was 142 ± 19.4%.

**Q.** What about the Emax (5-HT1AR [3]; read-out: Emax (%) ± SEM, compound alone) of the same compound?
**A.** The Emax was 152 ± 2.4%.
